Tests used:
[1] = Payload determination, low molecular weight substance (SRB); format: physicochemical; details: SRB dye encapsulated in liposomes, released with 5% Triton X-100, read at 565 nm
Procedure: To determine the phospholipid concentration of liposomes, 10 μl of each liposome solution was placed in a 16×100 mm glass tube along with 0.4 ml of 10 N sulfuric acid. A set of phosphate standards was prepared from a 0.645 mM stock (Sigma P3869) which was also assayed in glass tubes alongside the liposome samples. Samples, standards and blank tubes were run in duplicate. All tubes were placed in a heating block and digested for 30 minutes at 180° C. Tubes were then removed from the heating block and cooled for 5 minutes before adding 100 μl of 9% hydrogen peroxide. All tubes were then again heated for 30 minutes at 180° C. […] All standards, samples and blanks were read at 820 nm on a spectrophotometer. Using the known standard values, a curve was generated from which phosphate concentration values can be calculated for each of the liposome samples. Phosphate concentration values are expressed as μmoles Pi/mL. […]
Sulfa rhodamine-B sodium salt (“SRB”) was used to determine payload capacity for a low molecular weight substance. […] All samples and standards were then read at 565 nm on a spectrophotometer. SRB dye payload molar concentrations were then calculated from the known standard curve. Using this procedure, the payload for SRB was determined to be about 10.956 nmoles per 50 nmoles of phosphate. […]

[2] = Lymph node penetration assay; details: Intradermal injection, liposomes 30 minutes after avidin, nodes harvested 24 hours, sodium salt
Procedure: Avidin was purchased from Sigma, with the concentration at 10 mg/ml. Avidin was hydrated with injectable saline. A 50 μl aliquot, at a dose of 250 μg, was delivered as described.
SRB was purchased from Sigma (Cat.# S9012). SRB was selected for its high solubility, and due to the fact that it is readily visible to the naked eye and has fluorescent properties.
An LUV process was used to make the SRB-liposomes. Two basic formulations were developed—hi and low PE-biotin content. […] The liposome formulation contained the following: DSPC (94.0 mg; 119.0 μmoles); DSPG (10.3 mg; 13.2 μmoles); Chol (50.9 mg; 132.0 μmoles); and Diol Biotin (2.6 mg; 2.64 μmoles). The mixture was brought to about 20 ml with chloroform and methanol at a 10:1 ratio. Organic solvent was removed at 45° C. A thin film on a rotovap flask was hydrated in 18 ml of 0.1M SRB prepared in buffer (1 mM EDTA, 0.2% NaN3, pH=8.0). The lipid dye suspension was then extruded through a series of nucleopore membranes (5.0. 1.0, 0.8, 0.6, 0.4, 0.2, 0.1, 0.05 micron). Approximately 5 ml was saved after the 0.2, 0.1 and 0.05 micron membranes. Each of the 5 ml preps was centrifuged, and pellets washed with osmotically adjusted (physiological 310 mOSM) buffer. After the free SRB was washed away, the final liposome pellets were resuspended in the same buffer to the final volume of 1 ml. […]

[3] = intravenous, 200 uL single tail vein injection
Procedure: IV delivery of free and particulate ICG was administered in a 200 uL volume in a single tail vein injection.

Visible Aggregation/Accumulation in Axillary Node ([2]; listed as Free SRB liposomes)	Visible Aggregation/Accumulation in Axillary Node [2]	Compound	payload for SRB [1]	accumulation across the peritoneal cavity [3]
no SRB color retention in the node	No	CCN(CC)c1ccc2c(-c3ccc(S(=O)(=O)[O-])cc3S(=O)(=O)[O-])c3ccc(=[N+](CC)CC)cc-3oc2c1.[Na+] [free SRB, Sulfa rhodamine-B sodium salt]	about 10.956 nmoles per 50 nmoles of phosphate	–
–	–	CC1(C)C(/C=C/C=C/C=C/C=C2\N(CCCCS(=O)(=O)O)c3ccc4ccccc4c3C2(C)C)=[N+](CCCCS(=O)(=O)[O-])c2ccc3ccccc3c21 [free cardiogreen, Indocyanine Green]	–	manifested accumulation across the peritoneal cavity

From patent publication US20070088414A1, “Particulate formulations for intradermal delivery of biologically active agents” (priority 2005, published 2007)
